# Assay results taken from US20170360863A1, “USE OF POLYACETYLENIC GLYCOSIDES FOR SUPPRESSION OF GRANULOCYTIC MYELOID-DERIVED SUPPRESSOR CELL ACTIVITIES AND TUMOR METASTASIS” (Academia Sinica, priority 2014, published 2017).
# Key:
# [1] = tested on: granulocytic and monocytic MDSCs; assay: MDSC populations in organs of tumor-resected mice (flow cytometry); format: in vivo, BALB/c mice; conditions: 23 days post tumor resection
# Excerpt: Lung tissues of test mice were harvested and minced with 150 U/mL Type I Collagenase in tissue grinders for 20 to 50 times. After digestion and lysed with ACK buffer, grinded tissues were collected and filtered through 40 μm cell strainer. Spleen tissues were minced gently with PBS in tissue grinders. After lysed with ACK buffer, cells were collected for further analysis. Blood were lysed with ACK buffer for 3 times and harvested for further analysis. All cells were collected and stained with anti-CD11b, and anti-Ly6G/Ly-6C for flow cytometry analysis.
# The myeloid derived suppressor cell (MDSC) populations in spleen tissue of each test group were investigated.
# (§1) Mice were sacrificed at 23 days post tumor resection, lung, liver and spleen of test mice were excised and tumor metastasis measured by bioluminescent imaging.
# [2] = tested on: 4T1-luc2 tumor metastasis; assay: 4T1-luc2 tumor resection model, tumor metastasis; format: in vivo, BALB/c mice; conditions: 23 days post tumor resection
# Procedure: 4T1-luc2 cells (5×10^5 cells/100 μl PBS) were orthotopically implanted into mammary fat-pad of BALB/c mice. Primary tumor growth was evaluated by measuring tumor weight and by monitoring bioluminescent imaging of mammary tumors (BL1) every 7 days. For tumor resection mouse model, 4T1-luc2 cells (5×10^5 cells/100 μl PBS) were orthotopically implanted into mammary fat pad of test mice. At day 21 post tumor implantation, the tumor mass was gently surgically removed. Bioluminescent imaging of metastatic tumor was monitored by using Non-invasive in vivo imaging system (IVIS). The body weight of the test mouse was approximately 25 g.
# For this experiment, at 21 days post orthotopic tumor implantation, the tissue mass of 4T1-luc2 tumors in test mice was surgically removed.
# At 21 days post implantation, the tumor mass was surgically removed gently. Following surgery, each treatment group was randomly divided into control, F1 and the docetaxel groups (i.e., via iv injection with 10 mg docetaxel/kg every other 3 days). […] The BLI values for each mouse was quantitatively measured and pooled for each test group.
# as §1
smiles,measurement,setting,value
CC(=O)O[C@@]12CO[C@@H]1C[C@H](O)[C@@]1(C)C(=O)[C@H](O)C3=C(C)[C@@H](OC(=O)[C@H](O)[C@@H](NC(=O)OC(C)(C)C)c4ccccc4)C[C@@](O)([C@@H](OC(=O)c4ccccc4)[C@H]21)C3(C)C [docetaxel],"4T1 tumor-induced accumulation of granulocytic MDSCs in lung, peripheral blood and spleen",[1],significantly reduced
same,tumor metastasis into lung (bioluminescent imaging of excised organs),[2],effectively inhibited
same,"BLI value (bioluminescent imaging, whole body)","[2]; BP-E-F1 oral 5 mg/kg/day, docetaxel iv 10 mg/kg every other 3 days",effectively reduce
same,metastasis rate,"[2]; F1 oral 5 mg/kg/day, docetaxel iv 10 mg/kg every other 3 days",12.5%
